The conditions of series [1]: HLM, ref 14 (THJ-018, THJ-2201), 15 (NNEI, MN-18), 106 (NM-2201), 107 (BIM-2201), 108 (STS-135), 16 (AB-PINACA, 5F-AB-PINACA), 54 (5F-MDMB-PINACA), 69 (AB-FUBINACA), 17 (ADB-FUBINACA), 97 (FDU-PB-22, FUB-PB-22), cited from earlier work; for CLint micr / t1/2: 95 (Cumyl-PICA, 5F-Cumyl-PICA), 109 (5F-APP-PICA, 5F-APP-PINACA; for CLint micr: 73 (5F-AMB-PINACA); for t1/2 / CLint: 57 (AMB-4en-PICA); for t1/2: 73 (AMB-PINACA, 5F-AMB-PINACA).

Series [2] in a line: Metabolic stability, pooled human liver microsome incubations. On the procedure:
Total incubation volume was 500 µL. Procedure: Test compound working solutions (50 µM in potassium phosphate buffer (pH 7.4)) were prepared (<1% DMSO). pHLM were thawed and diluted in potassium phosphate buffer (pH 7.4). […] Reactions were quenched in 200 µL ACN spiked with donepezil (IS, 50 ng mL^−1). […] Samples were analysed by UPLC-MS/MS in a 96 deep-well 2 mL plate. Each SCRA was incubated at least in triplicate but additional incubations were carried out across a number of analytical batches, giving greater replication and a greater understanding of system variability. Microsomal scaling factors used for human liver microsome incubations in the literature vary. Intrinsic clearance and predicted in vivo clearance rates calculated using alternative scaling factors found in the literature is provided in Section S6 of the supplementary information, to aid comparison of data between publications.
Equations used for in vitro intrinsic clearance calculation and human in vivo clearance […]
The equations used for in vitro intrinsic clearance calculation and human in vivo clearance estimation […]
Microsomal clearance (HLM incubations) in mL min-1 mg microsomal protein-1 [3]
Intrinsic clearance (whole-liver dimensions) (HLM incubations) in mL min-1 kg-1 [3] CL = k x V x [Liver](g) x SF Eqn. 7 […]
mg g microsomal protein-1 [7]
Intrinsic clearance (whole-liver dimensions) (HHep incubations) in mL min-1 kg-1 [4] CL = k x V x hepatocytes/g liver x [Liver](g) Eqn. 8 […]
Where: hepatocytes/g liver = 107x10^6 cells/g liver
Hepatic clearance in mL min-1 kg-1 [3]
[…] Eqn. 9
Where: Q = hepatic blood flow, 21 mL min-1 kg-1 [9]; fu = fraction unbound (plasma); CLint = […]
Estimated human hepatic extraction ratio [5]
Intrinsic clearance data – pooled human liver microsome incubations […]
table S4-28. Intrinsic clearance and predicted in vivo data calculated using alternative microsomal scaling factors found in the literature – 32 [10] and 45 [11] mg microsomal protein per gram liver – are provided in tables S29 and S30, respectively.
On the technique in general: Liver microsomes are vesicles of endoplasmic reticulum, rich in cytochrome P450 enzymes.

The test system of series [3] is pooled human cryopreserved hepatocytes (pHHeps). The experiment in a line: Metabolic stability, pooled human cryopreserved hepatocyte incubations.
Series [4] in a line: Plasma protein binding by equilibrium dialysis. In kind it is in vitro ADME, human. The conditions noted are these: human, pooled human plasma, pH 7.4, equilibrium dialysis 5 h, 37 °C, 10 µg mL^−1; read-out: PPB (%) (converted). How it is done:
Plasma protein binding was assessed by equilibrium dialysis in a 96-well dialysis block (HTDialysis, Ledyard, CT, USA). Dialysis membranes (12–14 kDa) were soaked in deionised water for at least 60 min. Membranes were soaked overnight at 4 °C in ethanol:water 20:80% v/v and then rinsed with deionised water immediately prior to use. […] Spiked plasma (150 µL) was dialysed against isotonic phosphate buffer (pH 7.4) (150 µL) for 5 h at 37 °C with shaking at 100 rpm. Thermal degradation controls for each test compound were kept at 37 °C and 4 °C. Blank control plasma and buffer were included in the incubation. Following incubation, dialysed plasma samples and thermal degradation controls (50 µL) were added to drug-free buffer (50 µL), and dialysed buffer samples (50 µL) were added to drug-free plasma (50 µL). […] Supernatant (150 µL) was added to 50 µL deionised water and samples were analysed by UPLC-MS/MS as described above. Dialysed buffer from each well was tested for protein contamination using BCA protein assay reagent to determine whether membranes had been compromised.
Bu = Analyte/IS ratio determined in buffer side (2) Fraction unbound, fu=(100−% bound)/100

Setting [5] is: pHLM, scaling factor 32 mg microsomal protein per gram liver.
Where [6] appears, read: pHLM, scaling factor 45 mg microsomal protein per gram liver.
Where [7] appears, read: pHHeps, 99x10^6 hepatocytes per gram liver.

The structures appear in SMILES notation.

As for `NC(=O)[C@H](Cc1ccccc1)NC(=O)c1nn(CC2CCCCC2)c2ccccc12`, in series [1], the CLint micr was 133 µL/min/mg and the t1/2 was 5.2 min.

Take `NC(=O)[C@H](Cc1ccccc1)NC(=O)c1nn(CCCCCF)c2ccccc12` [5F-APP-PINACA]: in series [1], the CLint micr is 202 µL/min/mg and the t1/2 is recorded as 3.4 min.

As for `CC(C)(NC(=O)c1cn(CCCCCF)c2ccccc12)c1ccccc1` [5F-Cumyl-PICA], in series [1], the CLint micr was 390 µL/min/mg and the t1/2 is 1.77 min.

For `CC(C)[C@H](NC(=O)c1nn(CC2CCCCC2)c2ccccc12)C(N)=O` [(S)-AB-[…] (11)] [N-[1-amino-3-methyl-1-oxobutan-2-yl]-1-(cyclohexylmethyl)-1H-indazole-3-carboxamide], the “Predicted In Vivo Hepatic Clearance, CLH” value is 1.77 ± 0.17 mL/min/kg in series [2] (from pHLM CLint, well-stirred model with plasma fu, Q 21 mL min^−1 kg^−1) and 4.52 ± 1.12 mL/min/kg in series [3] (from pHHeps CLint, well-stirred model with plasma fu, Q 21 mL min^−1 kg^−1). In addition, the “Hepatic extraction ratio, EH” value is reported as 0.08 ± 0.008 in series [2] (from pHLM incubations); 0.05 ± 0.005 in series [2] (setting [5]); 0.08 ± 0.007 in series [2] (setting [6]); 0.22 ± 0.053 in series [3] (from pHHeps incubations); 0.20 ± 0.051 in series [3] (setting [7]). In addition, the “% parent compound remaining, Average” value stood at 76.2% in series [2] (pHLM, 3 min); 76.7% in series [2] (pHLM, 6 min); 70.6% in series [2] (pHLM, 9 min); 61.7% in series [2] (pHLM, 15 min); 45.8% in series [2] (pHLM, 30 min); 96.9% in series [3] (pHHeps, 3 min). The “% parent compound remaining, Average” value in series [3] (pHHeps, 6 min) is given as 85.7%; in series [3] (pHHeps, 9 min), 81.8%; in series [3] (pHHeps, 15 min), 88.6%; in series [3] (pHHeps, 30 min) it was 65.5%; in series [3] (pHHeps, 45 min), 63.2%; in series [3] (pHHeps, 60 min), 53.4%. In series [2] (pHLM, n ≥ 3 ± SD), the “Microsomal Intrinsic Clearance, CLint micr” value is 0.051 ± 0.005 mL min^−1 mg Microsomal Protein^−1. In addition, the “Predicted in vivo hepatic clearance, CLH” value is 1.12 ± 0.11 mL/min/kg in series [2] (setting [5]), 1.54 ± 0.15 mL/min/kg in series [2] (setting [6]) and 4.26 ± 1.08 mL/min/kg in series [3] (setting [7]).

Turning to `CCCCCn1nc(C(=O)N[C@H](C(N)=O)C(C)C)c2ccccc21` [AB-PINACA], in series [1], the CLint micr was 37 µL/min/mg, the t1/2 was 18.7 min and the CLint was 35 mL/min/kg.

Consider `CCCCCn1nc(C(=O)N[C@H](C(=O)OC)C(C)C)c2ccccc21` [AMB-PINACA, methyl (1-pentyl-1H-indazole-3-carbonyl)valinate], for which, in series [1], the t1/2 is 1.1 min.

As to `O=C(c1cccc2ccccc12)c1nc2ccccc2n1CCCCCF` [BIM-2201], in series [1], the CLint micr is 142 µL/min/mg, the t1/2 was 4.9 min and the CLint was 134.1 mL/min/kg.

As for `CC(C)[C@H](NC(=O)c1nn(CCCCCF)c2ccccc12)C(N)=O` [Compound 5F-AB-PINACA], in series [1], the CLint micr is 19 µL/min/mg, the t1/2 is 35.9 min and the CLint was 18 mL/min/kg.

For `NC(=O)[C@H](Cc1ccccc1)NC(=O)c1cn(CCCCCF)c2ccccc12` [Compound 5F-APP-PICA], in series [1], the CLint micr is 46 µL/min/mg and the t1/2 is given as 15.1 min.

In the case of `CCCCCn1cc(C(=O)NC(C)(C)c2ccccc2)c2ccccc21` [Cumyl-PICA, 1-pentyl-N-(2-phenylpropan-2-yl)-1H-indole-3-carboxamide], in series [1], the CLint micr is 120 µL/min/mg and the t1/2 is on record as 5.92 min.

`O=C(Oc1cccc2ccccc12)c1cn(Cc2ccc(F)cc2)c2ccccc12` [FDU-PB-22]: in series [1], the CLint micr is 56 µL/min/mg, the t1/2 is on record as 12.4 min and the CLint was 52.7 mL/min/kg.

As for `O=C(Oc1cccc2cccnc12)c1cn(Cc2ccc(F)cc2)c2ccccc12` [FUB-PB-22], in series [1], the CLint micr is 60 µL/min/mg, the t1/2 is recorded as 11.5 min and the CLint was 57.1 mL/min/kg.

As for `CCCCCn1nc(C(=O)Nc2cccc3ccccc23)c2ccccc21` [MN-18], in series [1], the CLint micr was 410 µL/min/mg, the t1/2 is reported as 1.71 min and the CLint is 469 mL/min/kg.

For `O=C(Oc1cccc2ccccc12)c1cn(CCCCCF)c2ccccc12` [NM-2201], in series [1], the CLint micr is 88 µL/min/mg, the t1/2 is on record as 8.0 min and the CLint was 81.6 mL/min/kg.

With `CCCCCn1cc(C(=O)Nc2cccc3ccccc23)c2ccccc21` [NNEI], in series [1], the CLint micr was 300 µL/min/mg, the t1/2 is recorded as 2.29 min and the CLint was 350 mL/min/kg.

As to `O=C(NC12CC3CC(CC(C3)C1)C2)c1cn(CCCCCF)c2ccccc12` [STS-135, N-(adamantan-1-yl)-1-(5-fluoropentyl)-1H-indole-3-carboxamide], in series [1], the CLint micr is 222 µL/min/mg, the t1/2 was 3.1 min and the CLint is 209 mL/min/kg.

For `CCCCCn1nc(C(=O)c2cccc3ccccc23)c2ccccc21` [THJ-018], in series [1], the CLint micr is 36 µL/min/mg, the t1/2 is reported as 19.2 min and the CLint is 34.2 mL/min/kg.

`O=C(c1cccc2ccccc12)c1nn(CCCCCF)c2ccccc12` [THJ-2201]: in series [1], the CLint micr is 64 µL/min/mg, the t1/2 was 10.8 min and the CLint is 60.8 mL/min/kg.

Turning to `COC(=O)C1=C(C)NC(C)=C(C(=O)OCCN(C)Cc2ccccc2)C1c1cccc([N+](=O)[O-])c1` (centres unmarked) [nicardipine, reference compound], the fraction unbound at 5 h, 10 µg mL^−1 in series [4] is 0.023.

(Values after publication PMC7961380, “A Systematic Study of the In Vitro Pharmacokinetics and Estimated Human In Vivo Clearance of Indole and Indazole-3-Carboxamide Synthetic Cannabinoid Receptor Agonists Detected on the Illicit Drug Market” (Molecules, 2021).)
